# Measured values from a melting point compilation (Tetko et al.; mined from patent text by program, amines drawn as free bases though some values may be those of a salt).
row,SMILES,melting point [°C]
1,CN(C(=O)Nc1ccc(F)cc1F)c1cnc2ccc(Cl)cc2c1-c1ccccc1,200 to 201
2,CC(C)(C)C1C=C(Cn2nc(-c3ccccc3-c3nn(CC4=CC(C(C)(C)C)C(O)(C(C)(C)C)C=C4)c(=O)o3)oc2=O)C=CC1(O)C(C)(C)C (stereo not drawn),220
3,CCCCCCCCc1ccc(OCC(O)Cn2ccc3cc(C(N)=O)ccc32)cc1 (stereo not drawn),118 to 119
4,CCC(CC)c1ccc(Cl)c2nc3n(c12)CCCCN3c1ncc([N+](=O)[O-])cc1C,204 to 205
5,O=C(NC1(C(=O)O)CCCC1)C(CS)Cc1ccccc1 (stereo not drawn),165 to 167
6,CN(C)c1cccc(Oc2ncccc2C(=O)NCc2ccccc2Cl)c1,85 to 87
7,COc1ccc(-c2cncc(OC3SCC(OC(C)=O)C(OC(C)=O)C3OC(C)=O)c2)c(C)c1 (stereo not drawn),283
8,CN1CCc2c(c3ccccc3n2CCC(=O)NN)C1,123 to 124
9,COc1cc2ncc(C#N)c(Nc3ccccc3C)c2cc1OC,137 to 141
10,CNC(=O)c1cc(=O)c2ccccc2o1,224 to 225
11,COC(=O)CCNc1ccc(CNC(=O)C2Cc3ccccc3N2S(=O)(=O)c2ccc(-c3cccc(C(F)(F)F)c3)cc2)cc1 (stereo not drawn),61
12,COc1ccc(C(=O)c2[nH]c3ccc(Cl)cc3c2CC(=O)O)cc1,232 to 235
13,CCOC(=O)COc1cc2cc(C3CCCC3)sc2c(Cl)c1Cl,65 to 67
14,Cc1sc(-c2ccccc2)nc1CCOc1cc(COc2ccccc2CC(=O)O)on1,159 to 160
15,Cc1[nH]c(C=O)c(C)c1CCCCO,99
16,CC(Cc1ccc(OCc2ccccc2)cc1)NCC(O)c1cc2ccccc2o1 (stereo not drawn),111 to 122

row,SMILES,melting point [°C]
1,CCOC(=O)Nc1ccc(C2CCN(C(=O)OC(C)(C)C)CC2)cc1,126 to 128
2,NC(=O)Cc1ccc(Oc2ccccc2)cc1,161 to 163
3,O=C(c1cccc(Cl)c1)c1cccc(Cl)c1,117
4,O=C(Nc1c(C(O)(C(F)(F)F)C(F)(F)F)ccc2ccccc12)c1ccc(Cl)cc1,175 to 176
5,COc1cc(N)c(Cl)cc1C(=O)NC1CCN(CCn2c(=O)[nH]c3ccccc3c2=O)CC1OC (stereo not drawn),271
6,CCCCCCCCCCCCc1c[nH]c(C(=O)NN)c1,137 to 140
7,CNC(=O)CCSSCCC(=O)NC,113 to 115
8,CCOC(=O)C1=C(C)NN=C(C(=O)OC)C1c1ccccc1C#N (stereo not drawn),199
9,CNC(=O)C1=CC(COC)(COC)Oc2ccc([N+](=O)[O-])cc21,147 to 149
10,COC(=O)c1ccccc1S(=O)(=O)N(n1cnn(-c2nc(OC)cc(OC)n2)c1=O)S(=O)(=O)c1ccccc1C(=O)OC,176
11,COc1ccc(C2CC(=O)N(c3ccnc(NC(=O)NCc4ccccn4)c3)C2)cc1 (stereo not drawn),159 to 161
12,CC(C)(C)[Si](C)(C)Oc1ccc([N+](=O)[O-])cc1,36 to 38
13,COc1cc(OC)n2nc(N)nc2n1,215 to 220
14,COCCOC(=O)c1c(S(C)(=O)=O)ccc(C(=O)O)c1C,90 to 93
15,CCN1C=C(N=[N+]=[N-])N=C(C2CC2)c2ccccc21,158 to 160
16,CNC(=NCCn1cc(Cn2ccnc2)c2ccccc21)NC#N,172 to 173

# The next lines start with the values.
row,melting point [°C],SMILES
1,207 to 209,O=C(Nc1ccc(Cl)cc1)c1ccc2cccnc2c1O
2,227 to 229,COc1cccc(N2C(c3ccccc3Cl)=NS(=O)(=O)c3cnccc32)c1
3,128 to 129,CC(C)n1cnc2c(Nc3cccc(Cl)c3)nc(Cl)nc21
4,251 to 253,O=C(O)c1cn2c3c(ccc([N+](=O)[O-])c3c1=O)C1CCCCC12 (stereo not drawn)
5,167 to 168,CC(C)Oc1ccc(OCc2ccccc2)cc1-c1nc2ccc(CO)nc2[nH]1
6,243 to 245,CCn1c2ccccc2c2cc(-n3c(CC(=O)O)c(C(=O)O)c4cc(Oc5ccc(C(F)(F)F)cc5)ccc43)ccc21
7,265,Cc1cc(=O)c2cc(N)ccc2s1
8,184,COc1nn(-c2cccc(NC(C)=O)c2)c(=O)n(Cc2ccc3c(c2)OC(F)(F)O3)c1=O
9,157 to 159,O=C(Nc1ccc(CCN2CCCCC2)cc1)C1=Cc2cc(-c3ccccc3)ccc2CC1
10,69 to 70,CCCCOc1c(C#N)c(C#N)c(OCCCC)c2ccccc12
11,135,Cc1ccc(S(=O)(=O)n2ccc3cc(Br)ccc32)cc1
12,98 to 100,CCOC(=O)CC(O)CC(O)C=Cc1c(C(C)C)oc(-c2ccccc2)c1-c1ccc(F)cc1 (stereo not drawn)
13,238 to 241,O=C(O)c1ccc(S(=O)(=O)Nc2ccc(F)c(C(F)(F)F)c2)cc1
14,222,CCN(CC)C(=O)Nc1ccc(S(=O)(=O)n2c(=O)n(-c3ccccc3Cl)c3cc(Cl)ccc32)cc1
15,230,O=C1c2ccccc2C(O)(c2ccccc2)N1CC(c1ccccc1)c1ccccc1 (stereo not drawn)
16,103 to 105,CC(C)(C)NC(=O)[C@@H]1CCCN1C(=O)[C@@H](O)[C@H](Cc1ccccc1)NC(=O)[C@H](CC(N)=O)NC(=O)COc1ccc(NC(=O)OCc2ccccc2)cc1
17,84,O=[N+]([O-])c1cc(Cl)c(Oc2cc(Cl)c(Cl)cc2Cl)cc1Oc1ccccc1
18,168 to 171,CCOC(=O)c1cn(-c2nc(NCc3ccc(OC)cc3)c(Cl)cc2F)c2c(Cl)c(F)c(F)cc2c1=O

row,melting point [°C],SMILES
1,184 to 185,O=C(COc1ccc(-c2ccccc2-c2nn[nH]n2)cc1)C1CC1
2,105,CC(C)c1ccc(Cn2[nH]c(N)cc2=O)cc1
3,144 to 145,COc1ccc(CNC(=O)c2cc(C)ccc2N)cc1
4,109 to 110,Oc1cccnc1Oc1cccc(Cl)c1
5,87.2 to 87.9,COc1ccc(C(=O)C=Cc2cccc(N(C)C)c2)c(OC)c1OC
6,> 320,O=C(CCCOc1ccc2nc3[nH]c(=O)[nH]c3cc2c1)NC1CCCCC1
7,183 to 184,COC(=O)c1ccc(N2C(=O)CCC2(CBr)COC(=O)c2ccccc2)c([N+](=O)[O-])c1 (stereo not drawn)
8,229 to 230,CC(=O)Nc1ccc2c3c(oc2c1)CC(C(=O)O)CC3 (stereo not drawn)
9,97,COc1ccc(F)cc1C(C)(C)c1cc(Cl)ccc1O
10,266,NC(=O)c1[nH]c2cccnc2c1Sc1ccc(Cl)cc1Cl
11,144 to 146,O=C(NC1CCN(Cc2ccccc2)CC1)c1ccccc1OCc1ccnc2ccccc12
12,103 to 105,CC(C)CCSc1cccc(-c2nc(=O)c3ccccc3s2)n1
13,93 to 94,Cc1ccc(C)c(OCCCC(C)(C)C(=O)Nc2cccc(N)c2)c1
14,183,COc1cc(C(=O)c2ncc3ccccn23)ccc1[N+](=O)[O-]
15,125 to 129,CC1(C)CCC(C)(C)C2=C1CC(C(=O)O)C2
16,250 to 252,O=C(O)CCN1CCN(c2ccc([N+](=O)[O-])cc2)CC1
17,131 to 135,COc1cc(C)c(C(O)c2c(Cl)c(Cl)nc(Cl)c2C(F)(F)F)c(OC)c1OC (stereo not drawn)
18,104 to 106,CON(c1ccc([N+](=O)[O-])cc1F)S(=O)(=O)c1ccc(Cl)c(C(F)(F)F)c1
